{"source": "patent US20200337992A1", "about": "“Auricular Cleaning Composition” (priority 2015, published 2020)", "assay": "In vitro cerumenolytic effect test on synthetic cerumen", "details": "for % of cerumen removed: Table 3, total after four successive applications; for cerumenolytic activity / cerumenolytic effect: cf. FIG. 1, in vitro test", "procedure": "Thus, the selected formula of the synthetic cerumen which makes it possible to evaluate the in vitro cerumenolytic effect of agents is the following: [table] In order to select a new combination of cerumenolytic agents, the cerumenolytic effect test was employed using the cerumen described in the table above. […] The distribution is carried out in such a way that the cerumen is present only in the bottom of the tube and not on the edges or the opening, which could distort the results. The tubes are then left to stand for the amount of time required for the cerumen to solidify. The distribution is carried out the day before the in vitro test in order to leave the cerumen with a minimum of 24 h to cool and solidify. The dimensions of the test tube, the temperature at which the test was carried out and the amount of synthetic cerumen were chosen to represent as faithfully as possible, in vitro, the dog ear canal. According to these parameters, the procedure followed for measuring the in vitro effectiveness of an agent or of a combination of agents having a cerumenolytic effect is the following: =>The test tube containing only the cerumen is weighed before the test. […] =>The test tube is then attached to a stirring turbine and immersed in a bath of water heated to 35° C. (the water height is sufficient for the content of the tube (cerumen+test product) to be immersed. =>The stirring is maintained for 20 minutes at 50 rpm. […] This step makes it possible to remove the product and the cerumen debris detached by the cerumenolytic agent. =>At the end of the time elapsed, the tube is weighed to evaluate the amount of cerumen removed. =>This process is carried out four times in a row, on each same tube, in order to simulate and evaluate the application number required to remove the cerumen plug present in the dog ear canal. Each time, the cerumen remaining at the bottom of the tube is dried and then weighed. […] As previously indicated, in order to check the effectiveness of an agent, the test tubes are weighed before the test is carried out and after the phase of leaving to stand upside down for 1 h. The removal of the cerumen is, according to this process, evaluated as for this example: =>Weight of the tube A before test 1: 3.493 g and weight of the tube A after test 1: 3.449 g =>Percentage of cerumen removed: […] The percentages are thus calculated for each test: from 1 to 4. The total percentage of cerumen removed is obtained after having repeated the operation successively four times for one and the same tube.", "key": {"[1]": {"details": "500 mg synthetic cerumen, 2 ml test product, 35° C., 20 minutes at 50 rpm"}}}
{"smiles": "CCOCCOCCO", "note": "[100% Transcutol ®, 2-(2-ethoxyethoxy)ethanol]", "values": [{"measurement": "% of cerumen removed", "setting": "[1]", "value": 100, "unit": "%"}, {"measurement": "% cerumen removed (after test 4)", "setting": "Table 4, 500 mg synthetic cerumen, 2 ml test product, 35° C., 20 minutes at 50 rpm, after test 4", "value": 100.0, "unit": "%"}, {"measurement": "cerumenolytic activity / cerumenolytic effect", "value": "~100", "unit": "%"}]}
{"smiles": "CC(C)O", "note": "[100% Isopropyl alcohol, isopropyl alcohol]", "values": [{"measurement": "% of cerumen removed", "setting": "[1]", "value": 66, "unit": "%"}, {"measurement": "cerumenolytic activity / cerumenolytic effect", "value": "about 60%"}]}
